Structures can show the parent of a compound that is named as a salt.

The target of this test is S. aureus GyrB ATPase (Staphylococcus aureus, UniProt P0A0K8). The experiment in a line: S. aureus GyrB ATPase inhibition (ammonium molybdate/malachite green phosphate detection). It is filed as biochemical. To be noted: compound at 1 μM; inhibition of S. aureus GyrB ATPase; read-out: Percent Inhibition (1 μM). As for the experimental part:
S. aureus GyrB ATPase Inhibition Activity: Compounds may be tested for inhibition of S. aureus GyrB ATPase activity using an ammonium molybdate/malachite green-based phosphate detection assay (Lanzetta, P. A., L. J. Alvarez, P. S. Reinach, and O. A. Candia, 1979, 100: 95-97). Assays can be performed in multiwell plates in 30 μl reactions containing: 50 mM Hepes buffer pH 7.5, 75 mM ammonium acetate, 8.0 mM magnesium chloride, 0.5 mM ethylenediaminetetraacetic acid, 5% glycerol, 1.0 mM 1,4-Dithio-DL-threitol, 200 nM bovine serum albumin, 1.0 μg/ml sheared salmon sperm DNA, 250 pM E. coli GyrA, 250 pM S. aureus GyrB, 250 μM ATP, and compound in dimethylsulfoxide. Reactions can be quenched with 30 μl of ammonium molybdate/malachite green detection reagent containing 1.2 mM malachite green hydrochloride, 8.5 mM ammonium molybdate tetrahydrate, and 1 M hydrochloric acid. Plates can be read in an absorbance plate reader at 650 nm and percent inhibition values can be calculated using dimethylsulfoxide (2%)-containing reactions as 0% inhibition and EDTA-containing ([…]) reactions as 100% inhibition controls. An IC50 measurement of compound potency for each compound can be determined from reactions performed in the presence of 10 different compound concentrations.

S. aureus GyrB ATPase, sequence (P0AES4 whole entry): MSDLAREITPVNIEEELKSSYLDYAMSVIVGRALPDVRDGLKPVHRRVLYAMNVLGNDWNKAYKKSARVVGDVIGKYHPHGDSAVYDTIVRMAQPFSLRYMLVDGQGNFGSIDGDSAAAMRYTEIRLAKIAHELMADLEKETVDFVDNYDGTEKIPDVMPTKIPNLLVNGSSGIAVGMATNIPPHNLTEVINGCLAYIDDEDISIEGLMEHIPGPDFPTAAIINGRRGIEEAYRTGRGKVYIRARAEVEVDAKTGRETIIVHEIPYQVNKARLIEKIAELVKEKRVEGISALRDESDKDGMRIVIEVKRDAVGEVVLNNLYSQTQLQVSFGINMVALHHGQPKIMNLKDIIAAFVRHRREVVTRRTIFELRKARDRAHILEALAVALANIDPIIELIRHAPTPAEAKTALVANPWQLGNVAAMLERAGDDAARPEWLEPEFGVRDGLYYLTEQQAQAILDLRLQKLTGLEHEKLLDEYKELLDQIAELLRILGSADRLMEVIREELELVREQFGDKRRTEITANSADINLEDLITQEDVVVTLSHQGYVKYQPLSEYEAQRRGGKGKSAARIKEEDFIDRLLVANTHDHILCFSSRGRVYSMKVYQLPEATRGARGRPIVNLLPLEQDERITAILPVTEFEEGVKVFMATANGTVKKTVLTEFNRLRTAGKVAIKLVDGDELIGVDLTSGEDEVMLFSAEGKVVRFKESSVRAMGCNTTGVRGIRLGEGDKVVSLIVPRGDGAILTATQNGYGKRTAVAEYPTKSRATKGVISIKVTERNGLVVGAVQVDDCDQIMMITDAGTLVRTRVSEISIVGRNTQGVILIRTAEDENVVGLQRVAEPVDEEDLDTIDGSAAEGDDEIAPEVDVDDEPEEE
S. aureus GyrB ATPase, sequence (P0A0K8 whole entry): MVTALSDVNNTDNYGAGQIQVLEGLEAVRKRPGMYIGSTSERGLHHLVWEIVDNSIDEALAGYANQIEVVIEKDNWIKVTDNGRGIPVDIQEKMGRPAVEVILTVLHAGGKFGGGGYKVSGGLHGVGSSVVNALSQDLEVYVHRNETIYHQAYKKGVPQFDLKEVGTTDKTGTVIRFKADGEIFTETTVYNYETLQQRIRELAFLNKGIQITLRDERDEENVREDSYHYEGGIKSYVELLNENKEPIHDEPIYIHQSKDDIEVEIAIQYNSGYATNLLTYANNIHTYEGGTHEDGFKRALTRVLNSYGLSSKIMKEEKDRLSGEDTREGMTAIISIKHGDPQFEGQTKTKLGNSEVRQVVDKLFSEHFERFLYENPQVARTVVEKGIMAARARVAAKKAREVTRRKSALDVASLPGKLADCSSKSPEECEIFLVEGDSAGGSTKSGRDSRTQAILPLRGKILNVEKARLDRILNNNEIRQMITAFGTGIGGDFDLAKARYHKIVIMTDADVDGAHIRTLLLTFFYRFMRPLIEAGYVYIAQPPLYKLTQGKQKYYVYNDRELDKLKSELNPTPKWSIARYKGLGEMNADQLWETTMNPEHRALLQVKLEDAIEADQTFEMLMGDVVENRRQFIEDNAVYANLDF

As to `CCNC(=O)Nc1cc(-c2nc(C(F)(F)F)cs2)c(-c2ccc3c(=O)c(C(=O)NCCCOP(=O)(O)O)cn(CC)c3c2)cn1` [Example 14, 3-{[(1-ethyl-7-{6-[(ethylcarbamoyl)amino]-4-[4-(trifluoromethyl)-1,3-thiazol-2-yl]pyridin-3-yl}-4-oxo-1,4-dihydroquinolin-3-yl)carbonyl]amino}propyl dihydrogen phosphate], the inhibition at 1 µM amounted to 97%.
Take `CCNC(=O)Nc1cc(-c2nc(C(F)(F)F)cs2)c(-c2ccc3c(c2)c(=O)c(C(=O)OCCOP(=O)(O)O)cn3C2CC2)cn1` [Example 18, 2-(phosphonooxy)ethyl 1-cyclopropyl-6-(6-(3-ethylureido)-4-(4-(trifluoromethyl)thiazol-2-yl)pyridin-3-yl)-4-oxo-1,4-dihydroquinoline-3-carboxylate hydrochloride]: the inhibition at 1 µM was found to be 104%.
On to `CCNC(=O)Nc1cc(-c2nc(C(F)(F)F)cs2)c(-c2ccc3c(c2)c(=O)c(C(=O)OCc2oc(=O)oc2C)cn3C(COC)COC)cn1` [Example 40, (5-methyl-2-oxo-1,3-dioxo1-4-yl)methyl 1-(1,3-dimethoxypropan-2-yl)-6-(6-(3-ethylureido)-4-(4-(trifluoromethyl)thiazol-2-yl)pyridin-3-yl)-4-oxo-1,4-dihydroquinoline-3-carboxylate], for which the inhibition at 1 µM is 97%.
For `CCNC(=O)Nc1cc(-c2nc(C(F)(F)F)cs2)c(-c2cc3c(=O)c(C(=O)O)cn(CCN(C)C)c3cc2F)cn1` [Example 20, 1-(2-(dimethylamino)ethyl)-6-(6-(3-ethylureido)-4-(4-(trifluoromethyl)thiazol-2-yl)pyridin-3-yl)-7-fluoro-4-oxo-1,4-dihydroquinoline-3-carboxylic acid] the value was 106%.
On to `CCNC(=O)Nc1cc(-c2nc(C(F)(F)F)cs2)c(-c2cc3c(=O)c(C(=O)O)cn(CC(C)N(C)C)c3cc2F)cn1` (stereo not shown) [Example 51, 1-(2-(dimethylamino)propyl)-6-(6-(3-ethylureido)-4-(4-(trifluoromethyl)thiazol-2-yl)pyridin-3-yl)-7-fluoro-4-oxo-1,4-dihydroquinoline-3-carboxylic acid], for which the inhibition at 1 µM was found to be 95%.
For the compound `CCNC(=O)Nc1cc(-c2nc(-c3ccccc3)cs2)c(-c2cc3c(=O)c(C(=O)O)cn(C[C@@H]4CCCN4CC)c3cc2OCCN(CC)CC)cn1` [Example 49, (S)-7-(2-(diethylamino)ethoxy)-1-((1-ethylpyrrolidin-2-yl)methyl)-6-(6-(3-ethylureido)-4-(4-phenylthiazol-2-yl)pyridin-3-yl)-4-oxo-1,4-dihydroquinoline-3-carboxylic acid], the inhibition at 1 µM was found to be 105%.
Under `CCCn1cc(C(=O)NCCCOP(=O)(O)O)c(=O)c2ccc(-c3cnc(NC(=O)NCC)cc3-c3nc(C(F)(F)F)cs3)cc21` [Example 17, 3-{[(7-{6-[(ethylcarbamoyl)amino]-4-[4-(trifluoromethyl)-1,3-thiazol-2-yl]pyridin-3-yl}-4-oxo-1-propyl-1,4-dihydroquinolin-3-yl)carbonyl]amino}propyl dihydrogen phosphate] stands 100%; under `CCNC(=O)Nc1cc(-c2nc(C(F)(F)F)cs2)c(-c2ccc3c(c2)c(=O)c(C(=O)N(C)C)cn3C[C@H]2CCCNC2)cn1` [Example 33, 6-{6-[(Ethylcarbamoyl)amino]-4-[4-(trifluoromethyl)-1,3-thiazol-2-yl]pyridin-3-yl}-N,N-dimethyl-4-oxo-1-[(3S)-piperidin-3-ylmethyl]-1,4-dihydroquinoline-3-carboxamide], 104%; under `CCNC(=O)Nc1cc(-c2nc(C(F)(F)F)cs2)c(-c2cc3c(=O)c(C(=O)O)cn(C4CC4)c3cc2Cl)cn1` [Example 54, 7-chloro-1-cyclopropyl-6-(6-(3-ethylureido)-4-(4-(trifluoromethyl)thiazol-2-yl)pyridin-3-yl)-4-oxo-1,4-dihydroquinoline-3-carboxylic acid], 126%.
Under `CCNC(=O)Nc1cc(-c2nc(C(F)(F)F)cs2)c(-c2ccc3c(c2)c(=O)c(C(=O)O)cn3CCN)cn1` [Example 34, 1-(2-Aminoethyl)-6-{6-[(ethylcarbamoyl)amino]-4-[4-(trifluoromethyl)-1,3-thiazol-2-yl]pyridin-3-yl}-4-oxo-1,4-dihydroquinoline-3-carboxylic acid] stands 112%.
In the case of `CCNC(=O)Nc1cc(-c2nc(C(F)(F)F)cs2)c(-c2ccc3c(c2)c(=O)c(C(=O)O)cn3[C@H](COP(=O)(O)O)CC(C)C)cn1` [Example 7, (5)-6-(6-(3-ethylureido)-4-(4-(trifluoromethyl)thiazol-2-yl)pyridin-3-yl)-1-(4-methyl-1-(phosphonooxy)pentan-2-yl)-4-oxo-1,4-dihydroquinoline-3-carboxylic acid], the inhibition at 1 µM was 111%.
For `CCNC(=O)Nc1cc(-c2nc([C@H](N)C(C)C)cs2)c(-c2ccc3c(c2)c(=O)c(C(=O)O)cn3[C@H](CO)C(C)(C)C)cn1` [Example 53, 6-(4-(4-((R)-1-amino-2-methylpropyl)thiazol-2-yl)-6-(3-ethylureido)pyridin-3-yl)-1-((S)-1-hydroxy-3,3-dimethylbutan-2-yl)-4-oxo-1,4-dihydroquinoline-3-carboxylic acid] the value was 46%.
For `CCNC(=O)Nc1cc(-c2nc(-c3ccccc3)cs2)c(-c2cc3c(=O)c(C(=O)O)cn(CCN(C)C)c3cc2OCCN(CC)CC)cn1` [Example 46, 7-(2-(diethylamino)ethoxy)-1-(2-(dimethylamino)ethyl)-6-(6-(3-ethylureido)-4-(4-phenylthiazol-2-yl)pyridin-3-yl)-4-oxo-1,4-dihydroquinoline-3-carboxylic acid] the value was 108%.
For the compound `CCNC(=O)Nc1cc(-c2nc(-c3ccccc3)cs2)c(-c2cc3c(=O)c(C(=O)O)cn(CCN(C)C)c3cc2OCCN2CCOCC2)cn1` [Example 48, 1-(2-(dimethylamino)ethyl)-6-(6-(3-ethylureido)-4-(4-phenylthiazol-2-yl)pyridin-3-yl)-7-(2-morpholinoethoxy)-4-oxo-1,4-dihydroquinoline-3-carboxylic acid], the inhibition at 1 µM amounted to 99%.
Regarding `CCNC(=O)Nc1cc(-c2nc(C(F)(F)F)cs2)c(-c2ccc3c(c2)c(=O)c(C(=O)OCCOC(C)=O)cn3C(COC)COC)cn1` [Example 41, 2-acetoxyethyl 1-(1,3-dimethoxypropan-2-yl)-6-(6-(3-ethylureido)-4-(4-(trifluoromethyl)thiazol-2-yl)pyridin-3-yl)-4-oxo-1,4-dihydroquinoline-3-carboxylate], the inhibition at 1 µM came to 107%.
`CCNC(=O)Nc1cc(-c2nc(C(F)(F)F)cs2)c(-c2ccc3c(c2)c(=O)c(C(=O)OCCOC(=O)CC)cn3C(COC)COC)cn1` [Example 42, 2-(propionyloxy)ethyl 1-(1,3-dimethoxypropan-2-yl)-6-(6-(3-ethylureido)-4-(4-(trifluoromethyl)thiazol-2-yl)pyridin-3-yl)-4-oxo-1,4-dihydroquinoline-3-carboxylate]: the inhibition at 1 µM was found to be 104%.
For `CCNC(=O)Nc1cc(-c2nc(C(F)(F)F)cs2)c(-c2ccc3c(c2)c(=O)c(C(=O)OCCOP(=O)(O)O)cn3C(COC)COC)cn1` [Example 19, 2-(phosphonooxy)ethyl 1-(1,3-dimethoxypropan-2-yl)-6-(6-(3-ethylureido)-4-(4-(trifluoromethyl)thiazol-2-yl)pyridin-3-yl)-4-oxo-1,4-dihydroquinoline-3-carboxylate], the inhibition at 1 µM was found to be 110%.
On to `CCNC(=O)Nc1cc(-c2nc(C(F)(F)F)cs2)c(-c2ccc3c(=O)c(C(=O)NCCCOP(=O)(O)O)cn(CC4CC4)c3c2)cn1` [Example 15, phosphate hydrochloride], for which the inhibition at 1 µM was 76%.
`CCNC(=O)Nc1cc(-c2nc(C(F)(F)F)cs2)c(-c2ccc3c(c2)c(=O)c(C(=O)N(C)C)cn3CC2CN3CCN2CC3)cn1` (stereo not shown) [Example 31, 1-(1,4-diazabicyclo[2.2.2]oct-2-ylmethyl)-6-{6-[(ethylcarbamoyl)amino]-4-[4-(trifluoromethyl)-1,3-thiazol-2-yl]pyridin-3-yl}-N,N-dimethyl-4-oxo-1,4-dihydroquinoline-3-carboxamide]: the inhibition at 1 µM came to 114%.
In the case of `CCNC(=O)Nc1cc(-c2nc(C(F)(F)F)cs2)c(-c2ccc3c(c2)c(=O)c(C(=O)N(C)C)cn3CCN(C)C)cn1` [Example 29, 1-[2-(Dimethylamino)ethyl]-6-{6-[(ethylcarbamoyl)amino]-4-[4-(trifluoromethyl)-1,3-thiazol-2-yl]pyridin-3-yl}-N,N-dimethyl-4-oxo-1,4-dihydroquinoline-3-carboxamide], the inhibition at 1 µM came out at 93%.
On to `CCNC(=O)Nc1cc(-c2nc(C(F)(F)F)cs2)c(-c2ccc3c(c2)c(=O)c(C(=O)OCOC(=O)C(C)(C)C)cn3C(COC)COC)cn1` [Example 39, Pivaloyloxymethyl 1-(1,3-dimethoxypropan-2-yl)-6-(6-(3-ethylureido)-4-(4-(trifluoromethyl)thiazol-2-yl)pyridin-3-yl)-4-oxo-1,4-dihydroquinoline-3-carboxylate], for which the inhibition at 1 µM stood at 102%.
Turning to `CCNC(=O)Nc1cc(-c2nc(C(F)(F)F)cs2)c(-c2cc3c(=O)c(C(=O)O)cn(CC)c3cc2OCCN(C)C)cn1` [Example 47, 7-(2-(dimethylamino)ethoxy)-1-ethyl-6-(6-(3-ethylureido)-4-(4-(trifluoromethyl)thiazol-2-yl)pyridin-3-yl)-4-oxo-1,4-dihydroquinoline-3-carboxylic acid], the inhibition at 1 µM was 110%.

The values above are taken from US20100317624A1 (ASTRAZENECA AB, priority 2009, published 2010).
